Common to all, as to assay: NCI-60 cell line screen, 48 h
The subject of assay [1] is UO-31 renal.
Assay [2] has as its system KM12 colon.
The test system of assay [3] is HL-60(TB) leukemia.
The test system of assay [4] is HOP-62 NSCLC.
Assay [5] deals with OVCAR-3 ovarian.
Assay [6] has as its system A549 NSCLC.
The subject of assay [7] is TK-10 renal.
In assay [8] the test system is SK-MEL-28 melanoma.
Assay [9] concerns MALME-3M melanoma.
Assay [10] concerns SNB-19 CNS.

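Five compound concentrations were applied to cells in 96-well plates for 48 hours; endpoints were derived by simple linear interpolation of the resulting dose-response curve. GI50 = concentration required for 50% inhibition of growth. At the TGI there is no net growth.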

`NC(N)=NCCCCCNc1noc(Cc2c[nH]c3cc(Br)ccc23)n1`: the GI50 in assay [1] is 20.2 µM; in assay [2], 3.95 µM; in assay [3] it was 7.21 µM; in assay [4], 5.84 µM; in [5] it was 4.4 µM; in [6] it was 14.2 µM. The GI50 in assay [7] was 49.4 µM; in assay [8] it was 16.3 µM; in [9], 8.34 µM; in assay [10], 3.62 µM. Besides, the TGI in assay [1] was greater than 100 µM; in [2], 15.9 µM; in assay [3] it was 28.8 µM; in assay [4], 28.4 µM; in assay [5] it was 33.5 µM; in assay [6], greater than 100 µM. For the same compound, the TGI in [7] was greater than 100 µM; in assay [8] it was 36.7 µM; in assay [9], 35 µM; in assay [10], 20.4 µM.

Consider `COCCOc1cnc2ccn([C@H](C)c3nnc4c(F)cc(-c5cnn(C)c5)cn34)c(=O)c2c1`, for which the GI50 in assay [1] was 70.6 µM; in assay [2], 24.4 µM; in [3] it was greater than 100 µM; in [4], greater than 100 µM; in assay [5] it was greater than 100 µM; in assay [6], greater than 100 µM. Also, the GI50 in [7], in [8], in [9] and in assay [10] was greater than 100 µM throughout. The TGI in [1], in assay [2], in [3], in assay [4], in [5] and in assay [6] was greater than 100 µM each time. The TGI in assay [7], in [8], in [9] and in assay [10] was greater than 100 µM throughout.

`COc1cc2ncn(-c3cc(OCCc4ccccc4)c(C(N)=O)s3)c2cc1OC`: the GI50 in assay [1] is 8.16 µM; in assay [2], 18.9 µM; in assay [3], greater than 20.2 µM; in assay [4], greater than 25 µM; in assay [5], greater than 25 µM; in assay [6] it was greater than 25 µM. Besides, the GI50 in assay [7] is greater than 17.2 µM; in [8], greater than 25 µM; in assay [9], greater than 25 µM; in [10], greater than 25 µM. Also, the TGI in assay [1], in [2], in [3], in assay [4], in assay [5] and in assay [6] was greater than 25 µM throughout. The TGI in assay [7], in assay [8], in assay [9] and in assay [10] was greater than 25 µM in each case.

With `Oc1cc(C2OCCCO2)cc(O)c1O`, the TGI in assay [1], in assay [2], in assay [3], in assay [4], in assay [5] and in assay [6] was greater than 100 µM each time. The TGI in [7], in assay [8], in assay [9] and in assay [10] was greater than 100 µM each time.

With `C1C[OH+]CCNCC[OH+]CC[OH+]CCN1.[Cl-].[Pt+4]`, the GI50 in [1], in [2], in assay [3], in assay [4], in assay [5] and in [6] was greater than 100 µM throughout. Besides, the GI50 in assay [7], in [8], in [9] and in [10] was greater than 100 µM throughout. The TGI in assay [1], in assay [2], in assay [3], in [4], in assay [5] and in assay [6] was greater than 100 µM throughout. Further, the TGI in [7], in assay [8], in assay [9] and in [10] was greater than 100 µM each time.

For the compound `COc1ccc2c(O)cc3c(c2c1)[C@H](CCl)CN3C(=O)c1cc2cc(NC(=O)CCN3CCOCC3)ccc2[se]1`, the GI50 is less than 0.001 µM in assay [1]; less than 0.001 µM in assay [2]; 0.00142 µM in assay [3]; less than 0.001 µM in assay [4]; less than 0.001 µM in [5]; less than 0.001 µM in assay [7]. Also, the GI50 in assay [8], in [9] and in assay [10] was less than 0.001 µM in each case. In addition, the TGI in assay [1] was less than 0.001 µM; in assay [3], greater than 10 µM; in assay [4], 2.03 µM; in assay [5], greater than 10 µM; in assay [8] it was less than 0.001 µM; in [9] it was less than 0.001 µM. This compound yielded a TGI in assay [10] of 0.233 µM.

Consider `CN(C)C(=S)/N=c1\ss/c(=N\C(=S)N(C)C)n1-c1ccc(Cl)c(Cl)c1`, for which the TGI in assay [1], in assay [2], in assay [3], in assay [4], in [5] and in assay [6] was greater than 100 µM throughout. The TGI in [7], in assay [8], in [9] and in assay [10] was greater than 100 µM throughout.

With `O=C(CSC(c1ccccc1)c1ccccc1)N/N=C/c1ccc(Cl)cc1Cl`, the GI50 is 18.8 µM in assay [1]; 16.6 µM in assay [2]; 24.4 µM in assay [3]; 42.3 µM in assay [4]; 29.2 µM in [5]; 20.5 µM in assay [6]. Also, the GI50 in [7] was 26 µM; in assay [9], 16 µM. Also, the TGI is 68 µM in assay [1]; 38.9 µM in assay [2]; 55.1 µM in assay [3]; greater than 100 µM in [4]; 83 µM in assay [5]; 51.1 µM in assay [6]. For the same compound, the figures for the TGI in [7] and in assay [9] were 72 µM and 42 µM, respectively.

For `Cn1cc(C2=C(c3cn(CCCCCN)c4ccccc34)C(=O)NC2=O)c2ccccc21`, the GI50 in [1] was 5.52 µM; in [2], 17.8 µM; in [3], 6.07 µM; in [4], 15.2 µM; in assay [5], 7.8 µM; in assay [6], 10.1 µM. The GI50 in assay [7] is 10.6 µM; in assay [8], 12.7 µM; in [9], 18.4 µM; in assay [10], greater than 25 µM. Besides, the TGI is greater than 25 µM in [1]; greater than 25 µM in assay [2]; 13.4 µM in assay [3]; greater than 25 µM in assay [4]; greater than 23.2 µM in assay [5]; greater than 25 µM in assay [6]. Besides, the TGI in [7], in [8], in [9] and in [10] was greater than 25 µM each time.

As to `O=S1OC2(c3ccccc3-c3ccccc32)c2ccccc21` (centres undefined), the TGI in [1], in assay [2], in [3], in assay [4], in assay [5] and in assay [6] was greater than 100 µM in each case. The TGI in assay [7], in assay [8], in assay [9] and in assay [10] was greater than 100 µM in each case.

Turning to `CCc1ccccc1NC(=O)c1sc2nc3c(cc2c1N)C(=O)CCC3`, the GI50 was 14.8 µM in assay [1]; 0.432 µM in [2]; 0.326 µM in [3]; 0.587 µM in assay [4]; 0.383 µM in assay [5]; 0.656 µM in [6]. Further, the GI50 in assay [7] was 23.2 µM; in assay [8] it was 3.71 µM; in assay [9], 26.2 µM; in [10] it was 0.801 µM. The TGI in assay [1] is greater than 100 µM; in assay [2], greater than 100 µM; in [3], 43.7 µM; in [4] it was greater than 68.5 µM; in assay [5], 16 µM; in assay [6] it was greater than 100 µM. The TGI in assay [7], in assay [8], in assay [9] and in [10] was greater than 100 µM each time.

Consider `COc1ccc(Nc2c3ccccc3nc3occ(Cl)c23)cc1`, for which the GI50 in assay [1] was 0.346 µM; in assay [2] it was less than 0.01 µM; in assay [3], less than 0.01 µM; in assay [4] it was less than 0.0156 µM; in [5], less than 0.01 µM; in assay [6] it was less than 0.0112 µM. The GI50 is 0.0228 µM in assay [7], 0.0265 µM in assay [8], 0.0124 µM in [9] and 0.48 µM in assay [10]. Besides, the TGI in assay [1] was 26.9 µM; in assay [2], 4.1 µM; in assay [3], 0.547 µM; in [4], 19.1 µM; in assay [5], less than 0.0166 µM; in assay [6], 3.95 µM. Further, the TGI in assay [7] is 8.67 µM; in assay [8] it was 21.1 µM; in assay [9], 14.7 µM; in assay [10], greater than 38.2 µM.

`CC(=O)c1sc(-c2nc(C)c(C(=O)/C=C\c3ccc(/C=C\C(=O)c4sc(-c5nc(C)c(C(C)=O)s5)nc4C)cc3)s2)nc1C`: the TGI in assay [1], in assay [2], in [3], in assay [4], in assay [5] and in assay [6] was greater than 100 µM throughout. Moreover, the TGI in assay [7], in assay [8], in assay [9] and in assay [10] was greater than 100 µM each time.

`COC(=O)/C(C)=C/[N+](=O)[O-]`: the TGI in [1] came out at 33.3 µM; in assay [2], 32.9 µM; in [3] it was 40.1 µM; in assay [4], 57.9 µM; in assay [5], 29.6 µM; in assay [6] it was 44.1 µM. Besides, the TGI was 31.1 µM in [7], 31.4 µM in assay [9] and 32.9 µM in [10].

In the case of `O=c1[nH]c2cc(Cl)ccc2nc1/C(=N\O)C(O)c1ccc(Cl)cc1Cl` (centres undefined), the TGI in [1], in assay [2], in assay [3], in [4], in assay [5] and in [6] was greater than 100 µM in each case. Besides, the TGI in assay [8], in assay [9] and in assay [10] was greater than 100 µM each time.

On to `CN1NC(=Nc2ccccc2)Sc2c1cnn(-c1ccccc1)c2=O`, for which the TGI in [1] was greater than 100 µM; in [2], greater than 100 µM; in assay [3], greater than 100 µM; in [4] it was greater than 100 µM; in assay [5], 90.6 µM; in assay [6], greater than 100 µM. Also, the TGI in assay [7], in assay [9] and in assay [10] was greater than 100 µM in each case.

In the case of `CN[C@@H](C)[C@H](NC)c1ccccc1`, the TGI in assay [1], in [2], in assay [3], in [5], in assay [6] and in assay [7] was greater than 100 µM in each case. Besides, the TGI in assay [8], in assay [9] and in assay [10] was greater than 100 µM each time.

Take `COc1cc(C)c2c(c1C)OC(=O)c1c(C)c(Cl)c(O)c(C=O)c1O2`: the TGI in assay [1] came to 76 µM; in assay [2], 35.1 µM; in assay [3], 22 µM; in assay [4] it was 47 µM; in assay [5], 9.5 µM; in assay [6] it was 44.3 µM. The TGI is greater than 100 µM in assay [7], 42.3 µM in [9] and greater than 100 µM in assay [10].

For `Oc1cn(-c2ccc(Cl)cc2)nc1-c1n[nH]c(=S)n1C1CCCCC1`, the GI50 was 17 µM in assay [1]; 1.04 µM in assay [2]; 1.67 µM in assay [4]; less than 0.0456 µM in [5]; 2.03 µM in assay [6]; 0.807 µM in [7]. The GI50 in assay [8] is 0.639 µM; in assay [10], 0.416 µM. Besides, the TGI was greater than 100 µM in assay [1]; 17.5 µM in [2]; greater than 100 µM in assay [4]; 0.424 µM in [5]; greater than 48.8 µM in assay [6]; 34.1 µM in [7]. In addition, the TGI in assay [8] was greater than 100 µM; in assay [9], greater than 100 µM; in assay [10] it was greater than 44.8 µM.

Source of the values: PubChem BioAssay (NCI).
